Reference: publication PMC10041525, “New Dual Inhibitors of Bacterial Topoisomerases with Broad-Spectrum Antibacterial Activity and In Vivo Efficacy against Vancomycin-Intermediate Staphylococcus aureus” (Journal of Medicinal Chemistry, 2023)
Read-outs that look alike come from different tables or passages of the source.

How the values were obtained:
[1] = tested on: S. pneumoniae ATCC 49619; set-up: method as in earlier work; details: QC range for S. pneumoniae ATCC 49619, ref CLSI; cited from earlier work
[2] = tested on: E. faecium (n = 13); experiment: MIC broth microdilution at IHMA Europe; type: cell-based; details: for MIC: Enterococcus faecium, read-out: MIC
[3] = tested on: 100 A. baumannii strains (50 MDR, 50 non-MDR); experiment: MIC broth microdilution at IHMA Europe, panel of 100 strains; type: cell-based; details: Acinetobacter baumannii, read-out: MIC

C[C@@H](O)[C@H]1C(=O)N2C(C(=O)O)=C(SCCNC=N)C[C@H]12 [Imipenem, imipenem]
100.0%: Cumulative % at MIC ([2]; MIC >32 µg/mL)
0,03 - 0,12 µg/mL: MIC, CLSI Range [1]
> 32 µg/mL: MIC ([2]; E. faecium IHMA N° 1764866) | MIC ([2]; E. faecium IHMA N° 1765746) | MIC ([2]; E. faecium IHMA N° 1893573) | MIC ([2]; E. faecium IHMA N° 1893846) | MIC ([2]; E. faecium IHMA N° 1893942) | MIC ([2]; E. faecium IHMA N° 1894055) | MIC ([2]; E. faecium IHMA N° 1897027) | MIC ([2]; E. faecium IHMA N° 1897101) | MIC ([2]; E. faecium IHMA N° 1904592) | MIC ([2]; E. faecium IHMA N° 2075051) | MIC ([2]; E. faecium IHMA N° 2077718) | MIC ([2]; E. faecium IHMA N° 2083787)
> 16 µg/mL: MIC ([3]; A. baumannii IHMA 1769782, Israel 2018, MDR) | MIC ([3]; A. baumannii IHMA 1791877, Israel 2018, MDR) | MIC ([3]; A. baumannii IHMA 1792961, Jordan 2018, MDR) | MIC ([3]; A. baumannii IHMA 1814276, Lebanon 2018, MDR) | MIC ([3]; A. baumannii IHMA 1815198, Kuwait 2018, MDR) | MIC ([3]; A. baumannii IHMA 1815856, Israel 2018, MDR) | MIC ([3]; A. baumannii IHMA 1849819, Kuwait 2018, MDR) | MIC ([3]; A. baumannii IHMA 1926288, Qatar 2018, MDR) | MIC ([3]; A. baumannii IHMA 1963732, Turkey 2019, MDR) | MIC ([3]; A. baumannii IHMA 1971673, Latvia 2019, MDR) | MIC ([3]; A. baumannii IHMA 1983151, Greece 2019, MDR) | MIC ([3]; A. baumannii IHMA 1984665, Lithuania 2019, MDR) | MIC ([3]; A. baumannii IHMA 1986738, Turkey 2019, MDR) | MIC ([3]; A. baumannii IHMA 1987162, Croatia 2019, MDR) | MIC ([3]; A. baumannii IHMA 1993615, Turkey 2019, MDR) | MIC ([3]; A. baumannii IHMA 1994284, Italy 2019, MDR) | MIC ([3]; A. baumannii IHMA 2003279, Turkey 2019, MDR) | MIC ([3]; A. baumannii IHMA 2020360, Croatia 2019, MDR) | MIC ([3]; A. baumannii IHMA 2031524, Greece 2019, MDR) | MIC ([3]; A. baumannii IHMA 2035089, Serbia 2019, MDR) | MIC ([3]; A. baumannii IHMA 2038976, Hungary 2019, MDR) | MIC ([3]; A. baumannii IHMA 2051503, Serbia 2019, MDR)
7.7%: Cumulative % at MIC ([2]; MIC […] µg/mL)
≤ 0.25 µg/mL: MIC ([3]; A. baumannii IHMA 1769393, Lithuania 2018, Non-MDR) | MIC ([3]; A. baumannii IHMA 1769910, Israel 2018, Non-MDR) | MIC ([3]; A. baumannii IHMA 1790317, Czech Republic 2018, Non-MDR) | MIC ([3]; A. baumannii IHMA 1790916, Romania 2018, Non-MDR) | MIC ([3]; A. baumannii IHMA 1829500, Georgia 2018, Non-MDR) | MIC ([3]; A. baumannii IHMA 1830924, United Kingdom 2018, Non-MDR) | MIC ([3]; A. baumannii IHMA 1849829, Kuwait 2018, Non-MDR) | MIC ([3]; A. baumannii IHMA 1857118, Slovenia 2018, Non-MDR) | MIC ([3]; A. baumannii IHMA 1863631, France 2018, Non-MDR) | MIC ([3]; A. baumannii IHMA 1870054, United States 2018, Non-MDR) | MIC ([3]; A. baumannii IHMA 1884428, Italy 2018, Non-MDR) | MIC ([3]; A. baumannii IHMA 1884990, Germany 2018, Non-MDR) | MIC ([3]; A. baumannii IHMA 1900538, Turkey 2018, Non-MDR) | MIC ([3]; A. baumannii IHMA 1913773, Kenya 2018, Non-MDR) | MIC ([3]; A. baumannii IHMA 1926285, Qatar 2018, Non-MDR) | MIC ([3]; A. baumannii IHMA 1957343, Portugal 2019, Non-MDR) | MIC ([3]; A. baumannii IHMA 1967860, Spain 2019, Non-MDR) | MIC ([3]; A. baumannii IHMA 1975075, Israel 2019, Non-MDR) | MIC ([3]; A. baumannii IHMA 1977077, Kuwait 2019, Non-MDR) | MIC ([3]; A. baumannii IHMA 1995161, Czech Republic 2019, Non-MDR) | MIC ([3]; A. baumannii IHMA 1997936, Morocco 2019, Non-MDR) | MIC ([3]; A. baumannii IHMA 1999178, Belgium 2019, Non-MDR) | MIC ([3]; A. baumannii IHMA 2014367, Jordan 2019, Non-MDR) | MIC ([3]; A. baumannii IHMA 2014931, South Africa 2019, Non-MDR) | MIC ([3]; A. baumannii IHMA 2019315, Romania 2019, Non-MDR) | MIC ([3]; A. baumannii IHMA 2031511, Greece 2019, Non-MDR) | MIC ([3]; A. baumannii IHMA 2034657, Tunisia 2019, Non-MDR) | MIC ([3]; A. baumannii IHMA 2035134, Serbia 2019, Non-MDR) | MIC ([3]; A. baumannii IHMA 2058329, Slovenia 2019, Non-MDR) | MIC ([3]; A. baumannii IHMA 2065587, France 2019, Non-MDR) | MIC ([3]; A. baumannii IHMA 2099294, United Kingdom 2019, Non-MDR) | MIC ([3]; A. baumannii IHMA 2129256, Qatar 2019, Non-MDR)
16 µg/mL: MIC ([2]; E. faecium IHMA N° 1765436) | MIC ([3]; A. baumannii IHMA 2154584, Israel 2020, MDR)
1: No. of isolates at MIC ([2]; MIC […] µg/mL)
12: No. of isolates at MIC ([2]; MIC >32 µg/mL)
0.5 µg/mL: MIC ([3]; A. baumannii IHMA 1795669, Tunisia 2018, Non-MDR) | MIC ([3]; A. baumannii IHMA 1821468, South Africa 2018, Non-MDR) | MIC ([3]; A. baumannii IHMA 1986678, Turkey 2019, Non-MDR)
